Laboratory results as given in article PMC6563099, “Novel Thienopyrimidine Derivative, RP-010, Induces β-Catenin Fragmentation and Is Efficacious against Prostate Cancer Cells” (Cancers, 2019).

What was measured:
Type in all cases: cell-based
PC-3 = assay: MTT cytotoxicity assay, PC-3 prostate cancer cells; conditions: Homo sapiens, PC-3, MTT assay; means ± SDs of three independent experiments; read-out: IC50 ± SD, Prostate Cancer Cells, PC-3
Experimental: (§1) All the cells were cultured as adherent monolayers in culture flasks, and were used to determine the anti-cancer efficacy of RP-010. DMEM supplemented with 4.5 g of glucose, 10% fetal bovine serum (FBS) and 1% penicillin/streptomycin, was used to augment cell growth. Finally, the cells were incubated and grown in a humidified incubator containing 5% CO2 at 37 °C [50]. […] Cells were obtained from frozen stocks and cell passaging (up to P4) was performed at 80% cell confluency, using PBS and trypsin + 2.2-mM EDTA.
(§2) MTT assays were used to determine the cytotoxicity of the RP compounds, to PC cell lines, as previously described.

DU145 = assay: MTT cytotoxicity assay, DU145 prostate cancer cells; conditions: Homo sapiens, DU-145, MTT assay; means ± SDs of three independent experiments; read-out: IC50 ± SD, Prostate Cancer Cells, DU145
Experimental: as §1, §2

CRL-1459 = assay: MTT cytotoxicity assay, CRL-1459 normal colon epithelial cells; conditions: Homo sapiens, normal colon epithelial cell line, means ± SDs of three independent experiments, read-out: IC50 ± SD, Non-Prostate Cells, CRL-1459
Experimental: as §1, §2

CHO = assay: MTT cytotoxicity assay, CHO cells; conditions: Cricetulus griseus, Chinese hamster ovarian cell line, means ± SDs of three independent experiments, read-out: IC50 ± SD, Non-Prostate Cells, CHO
Experimental: as §1, §2

O=c1[nH]c(-c2ccccc2)nc2sc3c(c12)CCCC3 [RP1]
IC50 (PC-3): > 100 µM
IC50 (DU145): > 100 µM
IC50 (CRL-1459): > 100 µM
IC50 (CHO): > 100 µM

O=c1[nH]c(-c2ccc(F)cc2)nc2sc3c(c12)CCCC3 [RP2]
IC50 (PC-3): > 100 µM
IC50 (DU145): > 100 µM
IC50 (CRL-1459): > 100 µM
IC50 (CHO): > 100 µM

O=c1[nH]c(-c2ccc(Cl)cc2)nc2sc3c(c12)CCCC3 [RP3]
IC50 (PC-3): > 100 µM
IC50 (DU145): > 100 µM
IC50 (CRL-1459): > 100 µM
IC50 (CHO): > 100 µM

O=c1[nH]c(-c2ccc(Cl)cc2Cl)nc2sc3c(c12)CCCC3 [RP4]
IC50 (PC-3): 73.4 ± 3.1 µM
IC50 (DU145): > 100 µM
IC50 (CRL-1459): > 100 µM
IC50 (CHO): > 100 µM

O=c1[nH]c(-c2cccc([N+](=O)[O-])c2)nc2sc3c(c12)CCCC3 [RP5]
IC50 (PC-3): > 100 µM
IC50 (DU145): > 100 µM
IC50 (CRL-1459): > 100 µM
IC50 (CHO): > 100 µM

O=c1[nH]c(-c2ccc([N+](=O)[O-])cc2)nc2sc3c(c12)CCCC3 [RP6]
IC50 (PC-3): > 100 µM
IC50 (DU145): > 100 µM
IC50 (CRL-1459): > 100 µM
IC50 (CHO): > 100 µM

Cc1ccc(-c2nc3sc4c(c3c(=O)[nH]2)CCCC4)cc1 [RP7]
IC50 (PC-3): > 100 µM
IC50 (DU145): > 100 µM
IC50 (CRL-1459): > 100 µM
IC50 (CHO): > 100 µM

N#Cc1ccc(-c2nc3sc4c(c3c(=O)[nH]2)CCCC4)cc1 [RP8]
IC50 (PC-3): 6.4 ± 0.5 µM
IC50 (DU145): > 100 µM
IC50 (CRL-1459): > 100 µM
IC50 (CHO): > 100 µM

COc1cccc(-c2nc3sc4c(c3c(=O)[nH]2)CCCC4)c1 [RP9]
IC50 (PC-3): 2.8 ± 1.1 µM
IC50 (DU145): > 100 µM
IC50 (CRL-1459): > 100 µM
IC50 (CHO): > 100 µM

COc1ccc(-c2nc3sc4c(c3c(=O)[nH]2)CCCC4)cc1OC [RP11]
IC50 (PC-3): 6.6 ± 0.7 µM
IC50 (DU145): 2.7 ± 0.5 µM
IC50 (CRL-1459): > 100 µM
IC50 (CHO): > 100 µM

COc1cc(OC)cc(-c2nc3sc4c(c3c(=O)[nH]2)CCCC4)c1 [RP12]
IC50 (PC-3): 6.9 ± 1 µM
IC50 (DU145): > 100 µM
IC50 (CRL-1459): > 100 µM
IC50 (CHO): > 100 µM

COc1cccc(-c2nc3sc4c(c3c(=O)[nH]2)CCCC4)c1O [RP13]
IC50 (PC-3): > 100 µM
IC50 (DU145): > 100 µM
IC50 (CRL-1459): > 100 µM
IC50 (CHO): > 100 µM
